Data reported in patent US20220009920A1 (GB005, Inc., priority 2020, published 2022).

Experiments:
Experiment in all cases: Large panel kinase profiling
Format in all cases: biochemical
Conditions in all cases: 1 μM test article, 1 mM ATP
FES = FES (Homo sapiens, UniProt P07332)
Method in brief: (§1)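 Steps: combine kinase, CSox-Sensor substrate, 1 mM ATP and 1 μM compound; seal and incubate at 30° C.; read top fluorescence kinetically each minute, Ex 360 nm/Em 485 nm.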

LATS1 = target: T1, LATS1 (Homo sapiens, UniProt O95835)
T1 sequence (O95835 1-1130): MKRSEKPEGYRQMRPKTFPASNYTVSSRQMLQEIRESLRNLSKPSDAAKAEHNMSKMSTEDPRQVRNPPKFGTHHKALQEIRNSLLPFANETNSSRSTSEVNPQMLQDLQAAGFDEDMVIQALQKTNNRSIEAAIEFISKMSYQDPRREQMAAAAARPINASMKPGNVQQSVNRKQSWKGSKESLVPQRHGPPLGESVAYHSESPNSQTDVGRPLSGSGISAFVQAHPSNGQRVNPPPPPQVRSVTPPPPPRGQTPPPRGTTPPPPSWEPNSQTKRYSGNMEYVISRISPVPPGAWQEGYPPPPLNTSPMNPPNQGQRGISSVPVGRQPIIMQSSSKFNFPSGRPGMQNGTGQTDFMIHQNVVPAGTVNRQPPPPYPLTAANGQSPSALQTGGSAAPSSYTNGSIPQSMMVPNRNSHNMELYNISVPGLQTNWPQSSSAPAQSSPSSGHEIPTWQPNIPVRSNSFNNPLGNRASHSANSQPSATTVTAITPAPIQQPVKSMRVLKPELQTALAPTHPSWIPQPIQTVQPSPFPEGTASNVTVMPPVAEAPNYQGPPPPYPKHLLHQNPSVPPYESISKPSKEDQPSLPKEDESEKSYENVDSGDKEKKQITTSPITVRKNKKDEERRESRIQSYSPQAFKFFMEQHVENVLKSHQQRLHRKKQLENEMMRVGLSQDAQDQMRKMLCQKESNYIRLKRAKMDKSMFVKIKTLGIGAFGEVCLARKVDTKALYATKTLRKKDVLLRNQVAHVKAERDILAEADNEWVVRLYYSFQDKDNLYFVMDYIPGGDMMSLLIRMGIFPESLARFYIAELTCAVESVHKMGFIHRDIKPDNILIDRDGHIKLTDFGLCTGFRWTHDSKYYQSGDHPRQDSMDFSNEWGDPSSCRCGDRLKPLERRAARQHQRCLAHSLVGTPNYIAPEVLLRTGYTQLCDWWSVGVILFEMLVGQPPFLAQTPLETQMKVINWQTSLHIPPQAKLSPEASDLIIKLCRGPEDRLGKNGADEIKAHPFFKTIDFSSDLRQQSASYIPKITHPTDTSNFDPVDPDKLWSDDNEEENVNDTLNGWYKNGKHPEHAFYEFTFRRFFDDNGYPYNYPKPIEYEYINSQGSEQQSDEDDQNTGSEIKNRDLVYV
Method in brief: as §1

ZAP70 = target: T2, ZAP70 (Homo sapiens, UniProt P43403)
T2 construct: AssayQuant Technologies, Inc. (contract laboratory that ran the panel)
T2 sequence (P43403 1-619): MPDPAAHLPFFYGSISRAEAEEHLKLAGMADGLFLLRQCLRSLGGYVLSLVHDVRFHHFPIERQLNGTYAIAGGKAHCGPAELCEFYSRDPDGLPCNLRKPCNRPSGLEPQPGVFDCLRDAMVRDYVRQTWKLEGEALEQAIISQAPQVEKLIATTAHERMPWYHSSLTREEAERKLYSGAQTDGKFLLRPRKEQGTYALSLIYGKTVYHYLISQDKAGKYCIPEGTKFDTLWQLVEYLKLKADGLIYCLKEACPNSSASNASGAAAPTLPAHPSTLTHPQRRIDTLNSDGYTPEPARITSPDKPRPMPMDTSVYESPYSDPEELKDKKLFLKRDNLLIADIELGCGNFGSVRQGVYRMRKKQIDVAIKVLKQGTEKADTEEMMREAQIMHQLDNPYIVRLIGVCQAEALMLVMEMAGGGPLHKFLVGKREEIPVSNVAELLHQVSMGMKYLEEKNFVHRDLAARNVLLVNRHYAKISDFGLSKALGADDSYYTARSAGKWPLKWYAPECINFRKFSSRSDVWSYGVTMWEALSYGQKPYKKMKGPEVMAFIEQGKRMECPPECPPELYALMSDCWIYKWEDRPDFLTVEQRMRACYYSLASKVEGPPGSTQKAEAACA
Method in brief: as §1

EIF2AK1/HRI = target: T3, EIF2AK1/HRI (Homo sapiens, UniProt Q9BQI3)
T3 construct: AssayQuant Technologies, Inc. (service laboratory)
T3 sequence (Q9BQI3 whole entry): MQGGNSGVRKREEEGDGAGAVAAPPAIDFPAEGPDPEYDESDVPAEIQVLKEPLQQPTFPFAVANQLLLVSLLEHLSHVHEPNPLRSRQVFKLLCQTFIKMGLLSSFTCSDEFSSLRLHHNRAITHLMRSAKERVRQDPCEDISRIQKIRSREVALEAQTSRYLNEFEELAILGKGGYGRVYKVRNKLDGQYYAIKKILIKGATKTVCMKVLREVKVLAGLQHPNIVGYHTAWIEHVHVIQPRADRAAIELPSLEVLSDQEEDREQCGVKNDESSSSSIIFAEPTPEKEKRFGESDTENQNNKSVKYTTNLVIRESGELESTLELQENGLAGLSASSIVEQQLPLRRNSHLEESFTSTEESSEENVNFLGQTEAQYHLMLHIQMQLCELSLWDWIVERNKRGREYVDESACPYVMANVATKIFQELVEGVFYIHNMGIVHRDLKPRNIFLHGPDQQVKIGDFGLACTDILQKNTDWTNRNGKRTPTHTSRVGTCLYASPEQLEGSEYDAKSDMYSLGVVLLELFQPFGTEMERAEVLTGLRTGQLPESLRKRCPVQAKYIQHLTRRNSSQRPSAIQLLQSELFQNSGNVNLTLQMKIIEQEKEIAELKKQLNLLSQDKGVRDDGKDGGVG
Method in brief: as §1

CSNK1E/CK1E = target: T4, CSNK1E/CK1E (Homo sapiens, UniProt P49674)
T4 construct: AssayQuant Technologies, Inc. (service laboratory)
T4 sequence (P49674 whole entry): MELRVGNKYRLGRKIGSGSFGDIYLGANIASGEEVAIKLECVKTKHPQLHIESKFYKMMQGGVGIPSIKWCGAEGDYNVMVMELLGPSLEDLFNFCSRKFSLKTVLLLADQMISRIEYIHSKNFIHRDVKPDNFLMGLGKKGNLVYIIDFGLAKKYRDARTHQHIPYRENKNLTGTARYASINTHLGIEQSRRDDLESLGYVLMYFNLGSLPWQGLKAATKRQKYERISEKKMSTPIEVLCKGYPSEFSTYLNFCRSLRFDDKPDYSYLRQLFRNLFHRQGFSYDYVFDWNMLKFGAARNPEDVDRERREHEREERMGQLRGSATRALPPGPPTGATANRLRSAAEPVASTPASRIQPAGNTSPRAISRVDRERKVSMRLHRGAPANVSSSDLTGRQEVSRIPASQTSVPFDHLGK
Method in brief: as §1

SRMS = target: T5, SRMS (Homo sapiens, UniProt Q9H3Y6)
T5 construct: AssayQuant Technologies, Inc. (contract assay)
T5 sequence (Q9H3Y6 whole entry, species assumed): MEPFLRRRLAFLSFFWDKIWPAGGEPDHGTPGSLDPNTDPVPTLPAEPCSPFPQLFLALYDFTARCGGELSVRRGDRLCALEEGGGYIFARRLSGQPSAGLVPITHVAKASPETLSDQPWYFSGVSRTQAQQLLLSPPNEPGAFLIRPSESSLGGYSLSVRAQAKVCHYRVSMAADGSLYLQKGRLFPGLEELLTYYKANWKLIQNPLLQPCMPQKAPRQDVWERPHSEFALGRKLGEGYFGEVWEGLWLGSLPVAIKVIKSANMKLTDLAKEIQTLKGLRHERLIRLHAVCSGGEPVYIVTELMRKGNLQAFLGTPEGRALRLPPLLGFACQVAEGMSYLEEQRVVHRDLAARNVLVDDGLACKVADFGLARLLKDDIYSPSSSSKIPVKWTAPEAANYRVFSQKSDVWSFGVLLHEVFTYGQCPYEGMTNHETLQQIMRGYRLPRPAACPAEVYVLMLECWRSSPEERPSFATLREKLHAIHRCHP
Method in brief: as §1

NEK3 = target: T6, NEK3 (Homo sapiens, UniProt P51956)
T6 construct: AssayQuant Technologies, Inc. (assay service)
T6 sequence (P51956 1-506): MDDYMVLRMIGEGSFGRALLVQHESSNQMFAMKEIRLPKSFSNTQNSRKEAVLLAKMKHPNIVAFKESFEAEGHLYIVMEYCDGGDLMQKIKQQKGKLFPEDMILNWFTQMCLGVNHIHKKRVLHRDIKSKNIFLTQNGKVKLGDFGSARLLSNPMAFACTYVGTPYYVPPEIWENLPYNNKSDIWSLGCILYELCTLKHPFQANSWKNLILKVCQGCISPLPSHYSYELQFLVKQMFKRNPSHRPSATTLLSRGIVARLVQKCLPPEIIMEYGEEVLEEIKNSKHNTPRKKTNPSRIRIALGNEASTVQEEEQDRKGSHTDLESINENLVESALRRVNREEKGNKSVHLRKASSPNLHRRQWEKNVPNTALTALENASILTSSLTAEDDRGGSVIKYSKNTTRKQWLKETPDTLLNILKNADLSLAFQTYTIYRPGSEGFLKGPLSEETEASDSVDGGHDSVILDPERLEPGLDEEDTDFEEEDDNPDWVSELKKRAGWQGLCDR
Method in brief: as §1

Chain of FES (P07332 whole entry, species assumed): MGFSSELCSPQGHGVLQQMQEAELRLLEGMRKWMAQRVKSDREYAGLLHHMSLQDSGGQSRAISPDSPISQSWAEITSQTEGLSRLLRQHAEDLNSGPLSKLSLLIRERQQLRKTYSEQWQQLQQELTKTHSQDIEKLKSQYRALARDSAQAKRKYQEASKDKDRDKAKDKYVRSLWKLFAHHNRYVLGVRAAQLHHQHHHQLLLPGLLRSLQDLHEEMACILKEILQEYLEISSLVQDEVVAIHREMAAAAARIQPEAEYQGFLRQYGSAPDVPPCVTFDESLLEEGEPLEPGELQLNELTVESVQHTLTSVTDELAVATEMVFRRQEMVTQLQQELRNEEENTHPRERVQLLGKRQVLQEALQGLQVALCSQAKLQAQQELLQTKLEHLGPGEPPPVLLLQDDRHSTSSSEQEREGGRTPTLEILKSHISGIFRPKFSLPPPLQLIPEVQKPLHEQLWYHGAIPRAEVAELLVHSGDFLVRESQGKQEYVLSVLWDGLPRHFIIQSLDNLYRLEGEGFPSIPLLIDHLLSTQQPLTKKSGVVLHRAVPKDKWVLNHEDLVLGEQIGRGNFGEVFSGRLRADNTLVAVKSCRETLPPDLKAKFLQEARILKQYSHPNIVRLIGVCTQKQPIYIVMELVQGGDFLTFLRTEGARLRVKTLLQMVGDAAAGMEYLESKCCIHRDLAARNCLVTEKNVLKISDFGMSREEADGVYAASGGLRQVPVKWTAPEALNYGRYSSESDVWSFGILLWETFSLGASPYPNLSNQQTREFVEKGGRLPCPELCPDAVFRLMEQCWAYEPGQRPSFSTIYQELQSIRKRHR

Compound C=CC(=O)N1CCCC(c2c(F)cc(C(N)=O)c3[nH]c4c(c23)CCCCC4)C1 (single isomer, unassigned) [Compound 5-6] has an inhibition at 1 µM (FES) of 24.5%, an inhibition at 1 µM (LATS1) of -24.7% and an inhibition at 1 µM (ZAP70) of -22.5%. It also gave an inhibition at 1 µM (EIF2AK1/HRI) of -6.1%, an inhibition at 1 µM (CSNK1E/CK1E) of -4.2% and an inhibition at 1 µM (SRMS) of -10%. It also gave an inhibition at 1 µM (NEK3) of -21.2%.
With C=CC(=O)N1CCC[C@@H](c2c(F)cc(C(N)=O)c3[nH]c4c(c23)CCC4)C1 [Compound 10-2, (S)-8-(1-acryloylpiperidin-3-yl)-7-fluoro-1,2,3,4-tetrahydrocyclo-penta[b]indole-5-carboxamide] the inhibition at 1 µM (FES) was -31.2%, the inhibition at 1 µM (LATS1) was 22.9% and the inhibition at 1 µM (ZAP70) was -9.5%. The inhibition at 1 µM (EIF2AK1/HRI) was -89.5%, the inhibition at 1 µM (CSNK1E/CK1E) was 15.1% and the inhibition at 1 µM (SRMS) was -32%. The inhibition at 1 µM (NEK3) was -5%.
C=CC(=O)N1CCC[C@@H](c2c(F)cc(C(N)=O)c3[nH]c4c(c23)CC2(CC4)CC2)C1 [Compound 6-2, (S)-5-(1-acryloylpiperidin-3-yl)-6-fluoro-1,2,4,9-tetrahydrospiro[carbazole-3,1′-cyclopropane]-8-carboxamide] showed an inhibition at 1 µM (FES) of -33%, an inhibition at 1 µM (LATS1) of 10.1% and an inhibition at 1 µM (ZAP70) of 1.7%. For the same compound, the inhibition at 1 µM (EIF2AK1/HRI) was -34.9%, the inhibition at 1 µM (CSNK1E/CK1E) was -7.4% and the inhibition at 1 µM (SRMS) was -35.5%. The inhibition at 1 µM (NEK3) was -8.1%.
